Experimental data published in patent US9951056B2, “Substituted nicotinamide inhibitors of BTK and their preparation and use in the treatment of cancer, inflammation and autoimmune disease” (BEIJING INNOCARE PHARMA TECH CO., LTD., priority 2013, dated 2018).

What follows are compounds tested against BTK (Homo sapiens (Human), UniProt Q06187) (assay: ADP-Glo kinase biochemical assay, IC50 determination of BTK inhibitors). Conditions: ADP-Glo, ATP 50 uM; values given as bins.
Description: Biological Properties: IC50 Determination of BTK Inhibitors in ADP-Glo Kinase Biochemical Assay
Those skilled in the art will appreciate that a variety of assay formats may be used to determine the activity of the compounds described herein.
ADP-Glo™ Kinase Assay (Cat. V9102, 10000 Tests), Components: • 1×50 ml ADP-Glo™ Reagent, • 1×100 ml Kinase Detection Buffer, • 1× Kinase Detection Substrate (Lyophilized), • 1×5 ml Ultra Pure ATP, 10 mM • 1×5 ml ADP, 10 mM
• Enzyme concentration: 8 ng/5 ul. • ATP concentration: 50 uM • Substrate (peptide) concentration: 0.2 mg/ml. • Reaction buffer composition: 40 mM Tris-HCl pH7.5, 10 mM MgCl2, 2 mM MnCl2, 0.1 mg/mL BSA, 0.05 mM DTT. • Test compound concentration: DMSO≤0.5%. Methods: Compound Dosage Gradient Solution Preparation: […]
1× and 2× assay buffer were made at first. BTK kinase was diluted with 1× assay buffer but substrate was diluted with 2× assay buffer. 1 ul of diluted compound was transferred into 384-well assay plate, and then 2.0 ul of enzyme solution was added, and spun at 2000 rpm for 1 min. This mixture was incubated at 24° C. for 30 mins. 2 ul of peptide substrate/ATP mixture was added into the assay plate to start the reaction. The mixture was mixed thoroughly and then the 384-well plate was spun and incubated at 24° C. for 60 mins. 5.0 ul of ADP-Glo Reagent was added to stop the kinase activity and deplete the ATP unconsumed, and the plate was mixed thoroughly and incubated at 24° C. for 40 min. Then, 10.0 ul of Kinase Detection reagent was added, and the plate was centrifuged and then kept at 24° C. for 30 min. The luminescence signal was read on Envision.
IC50 values of compounds were calculated from a 4-parameter fit using Equation (2): Y=Bottom+(TOP-Bottom)/(1+((C/X)^hillslope)) Equation (2)
In Equation 2, Y represents % inhibition, X is the log value of the test compound concentration. IC50 was the concentration of compound where half of maximal inhibition was achieved.
All data was analyzed with IDBS XLfit5 software (ID Business Solutions Ltd., UK).

Chain of BTK (Q06187 whole entry): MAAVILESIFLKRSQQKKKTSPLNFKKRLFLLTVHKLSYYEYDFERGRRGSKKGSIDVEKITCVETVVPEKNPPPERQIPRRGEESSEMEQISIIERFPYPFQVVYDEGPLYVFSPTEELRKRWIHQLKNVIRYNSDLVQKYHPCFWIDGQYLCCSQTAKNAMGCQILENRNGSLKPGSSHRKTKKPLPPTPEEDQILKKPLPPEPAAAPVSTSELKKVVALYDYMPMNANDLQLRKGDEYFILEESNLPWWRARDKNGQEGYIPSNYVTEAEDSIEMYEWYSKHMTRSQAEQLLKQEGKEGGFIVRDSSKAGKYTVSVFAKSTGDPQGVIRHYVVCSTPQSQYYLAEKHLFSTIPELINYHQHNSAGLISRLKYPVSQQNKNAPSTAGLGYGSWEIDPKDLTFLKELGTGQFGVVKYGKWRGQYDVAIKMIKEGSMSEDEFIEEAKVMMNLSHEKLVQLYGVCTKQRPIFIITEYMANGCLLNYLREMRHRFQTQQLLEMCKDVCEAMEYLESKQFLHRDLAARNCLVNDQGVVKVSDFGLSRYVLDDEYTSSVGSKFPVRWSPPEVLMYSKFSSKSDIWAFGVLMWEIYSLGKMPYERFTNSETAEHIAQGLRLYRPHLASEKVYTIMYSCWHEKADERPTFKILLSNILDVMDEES

| Structure (SMILES) | IC50 |
| --- | --- |
| C=CC(=O)N1CCN(c2ccc(C(N)=O)c(-c3ccc(Oc4ccccc4)cc3)n2)CC1 [Example 5, 6-(4-acryloylpiperazin-1-yl)-2-(4-phenoxyphenyl)nicotinamide] | < 0.5 µM |
| C=CC(=O)N1CCC(c2nc(-c3ccc(Oc4ccccc4)cc3)c(C(N)=O)s2)C1 (centres unmarked) [Example 41, 2-(1-acryloylpyrrolidin-3-yl)-4-(4-phenoxyphenyl)thiazole-5-carboxamide] | < 0.5 µM |
| C=CC(=O)N1CCC(c2nc(-c3ccc(Oc4ccccc4)cc3)c(C(N)=O)o2)C1 (centres unmarked) [Example 43, 2-(1-acryloylpyrrolidin-3-yl)-4-(4-phenoxyphenyl)oxazole-5-carboxamide] | < 0.5 µM |
| C=CC(=O)N1CCC(c2nc(C(N)=O)c(-c3ccc(Oc4ccccc4)cc3)s2)C1 (centres unmarked) [Example 44, 2-(1-acryloylpyrrolidin-3-yl)-5-(4-phenoxyphenyl)thiazole-4-carboxamide] | < 0.5 µM |
| C=CC(=O)N1CCCC(c2nc(C(N)=O)c(-c3ccc(Oc4ccccc4)cc3)s2)C1 (centres unmarked) [Example 45, 2-(1-acryloylpiperidin-3-yl)-5-(4-phenoxyphenyl)thiazole-4-carboxamide] | < 0.5 µM |
| C=CC(=O)N1CCN(c2nc(-c3ccc(Oc4ccccc4)cc3)c(C(=O)NC)s2)CC1 [Example 47, 2-(4-acryloylpiperazin-1-yl)-N-methyl-4-(4-phenoxyphenyl)thiazole-5-carboxamide] | < 0.5 µM |
| N#CCC(=O)N1CC(n2cc(C(N)=O)c(-c3ccc(Oc4ccccc4)cc3)n2)C1 [Example 50, 1-(1-(2-cyanoacetyl)azetidin-3-yl)-3-(4-phenoxyphenyl)-1H-pyrazole-4-carboxamide] | ≥ 1 µM |
| C=CC(=O)N1CCN(c2nc(-c3ccc(Oc4ccccc4)cc3)c(C(N)=O)s2)CC1 [Example 51, 2-(4-acryloylpiperazin-1-yl)-4-(4-phenoxyphenyl)thiazole-5-carboxamide] | < 0.5 µM |
| C=CC(=O)N1CCC(c2nc(-c3ccc(Oc4ccccc4)cc3)c(C(N)=O)s2)CC1 [Example 52, 2-(1-acryloylpiperidin-4-yl)-4-(4-phenoxyphenyl)thiazole-5-carboxamide] | < 0.5 µM |
| C=CC(=O)N1CCCC(c2nc(C(N)=O)c(-c3ccc(Oc4ccccc4)cc3)o2)C1 (centres unmarked) [Example 54, 2-(1-acryloylpiperidin-3-yl)-5-(4-phenoxyphenyl)oxazole-4-carboxamide] | < 0.5 µM |
| C=CC(=O)N1CCN(c2ccc(C(N)=O)c(-c3ccc(Oc4ccccc4)cc3)c2)CC1 [Example 57, 5-(4-acryloylpiperazin-1-yl)-4′-phenoxybiphenyl-2-carboxamide] | < 0.5 µM |
| C=CC(=O)N1CCC(c2ccc(C(N)=O)c(-c3ccc(C(=O)Nc4ccccc4)cc3)n2)CC1 [Example 61, 6-(1-acryloylpiperidin-4-yl)-2-(4-(phenylcarbamoyl)phenyl)nicotinamide] | < 0.5 µM |
| C=CS(=O)(=O)N1CCN(c2ccc(C(N)=O)c(-c3ccc(Oc4ccccc4)cc3)n2)CC1 [Example 62, 2-(4-phenoxyphenyl)-6-(4-(vinylsulfonyl)piperazin-1-yl)nicotinamide] | < 0.5 µM |

Other lines, results leading:

| IC50 | Structure (SMILES) |
| --- | --- |
| < 0.5 µM | C=CC(=O)N1CCCC(c2nc(-c3ccc(Oc4ccccc4)cc3)c(C(N)=O)o2)C1 (centres unmarked) [Example 42, 2-(1-acryloylpiperidin-3-yl)-4-(4-phenoxyphenyl)oxazole-5-carboxamide] |
| < 0.5 µM | C=CC(=O)N1CCC(c2nc(-c3ccc(Oc4ccccc4)cc3)c(C(N)=O)o2)CC1 [Example 46, 2-(1-acryloylpiperidin-4-yl)-4-(4-phenoxyphenyl)oxazole-5-carboxamide] |
| < 0.5 µM | C=CC(=O)N1CCC(c2nc(C(N)=O)c(-c3ccc(Oc4ccccc4)cc3)o2)C1 (centres unmarked) [Example 48, 2-(1-acryloylpyrrolidin-3-yl)-5-(4-phenoxyphenyl)oxazole-4-carboxamide] |
| < 0.5 µM | C=CC(=O)N1CCC(c2nc(C(N)=O)c(-c3ccc(Oc4ccccc4)cc3)s2)CC1 [Example 49, 2-(1-acryloylpiperidin-4-yl)-5-(4-phenoxyphenyl)thiazole-4-carboxamide] |
| ≥ 1 µM | N#C/C(=C\C1CC1)C(=O)N1CC(n2cc(C(N)=O)c(-c3ccc(Oc4ccccc4)cc3)n2)C1 [Example 53, (E)-1-(1-(2-cyano-3-cyclopropylacryloyl)azetidin-3-yl)-3-(4-phenoxyphenyl)-1H-pyrazole-4-carboxamide] |
| < 0.5 µM | C=CC(=O)N1CCC(c2ccc(C(N)=O)c(-c3ccc(Oc4ccccc4)cc3)c2)CC1 [Example 55, 5-(1-acryloylpiperidin-4-yl)-4′-phenoxybiphenyl-2-carboxamide] |
| ≥ 1 µM | C=CC(=O)N1CCC(c2cc(C(N)=O)nn2-c2ccc(Oc3ccccc3)cc2)CC1 [Example 56, 5-(1-acryloylpiperidin-4-yl)-1-(4-phenoxyphenyl)-1H-pyrazole-3-carboxamide] |
| < 0.5 µM | C=CC(=O)N1CCC(c2ccc(C(N)=O)c(-c3ccc(C(O)c4ccccc4)cc3)n2)CC1 (centres unmarked) [Example 58, 6-(1-acryloylpiperidin-4-yl)-2-(4-(hydroxy(phenyl)methyl)phenyl)nicotinamide] |
| < 0.5 µM | C/C=C(\C#N)C(=O)N1CC(n2cc(C(N)=O)c(-c3ccc(Oc4ccccc4)cc3)n2)C1 [Example 59, (E)-1-(1-(2-cyanobut-2-enoyl)azetidin-3-yl)-3-(4-phenoxyphenyl)-1H-pyrazole-4-carboxamide] |
| < 0.5 µM | C=CC(=O)N1CCN(c2ccc(C(N)=O)c(-c3ccc(OC4CCC(F)(F)CC4)cc3)n2)CC1 [Example 60, 6-(4-acryloylpiperazin-1-yl)-2-(4-((4,4-difluorocyclohexyl)oxy)phenyl)nicotinamide] |
| < 0.5 µM | C=CS(=O)(=O)N1CCC(c2ccc(C(N)=O)c(-c3ccc(Oc4ccccc4)cc3)n2)CC1 [Example 63, 2-(4-phenoxyphenyl)-6-(1-(vinylsulfonyl)piperidin-4-yl)nicotinamide] |

Same assay, conditions: BTK, head-to-head assays

| Structure (SMILES) | improvement in potency over Analogs 1 and 2 |
| --- | --- |
| C=CC(=O)N1CCN(c2ccc(C(N)=O)c(-c3ccc(Oc4ccccc4)cc3)n2)CC1 [Example 5, 6-(4-acryloylpiperazin-1-yl)-2-(4-phenoxyphenyl)nicotinamide] | ~100 × |

The compounds below were run against SRC (Homo sapiens (Human), UniProt P12931) (assay: kinase competition binding screen (liganded affinity beads, qPCR) at 1000 nM). Conditions: BTK versus SRC.
Chain of SRC (P12931 whole entry, looked up): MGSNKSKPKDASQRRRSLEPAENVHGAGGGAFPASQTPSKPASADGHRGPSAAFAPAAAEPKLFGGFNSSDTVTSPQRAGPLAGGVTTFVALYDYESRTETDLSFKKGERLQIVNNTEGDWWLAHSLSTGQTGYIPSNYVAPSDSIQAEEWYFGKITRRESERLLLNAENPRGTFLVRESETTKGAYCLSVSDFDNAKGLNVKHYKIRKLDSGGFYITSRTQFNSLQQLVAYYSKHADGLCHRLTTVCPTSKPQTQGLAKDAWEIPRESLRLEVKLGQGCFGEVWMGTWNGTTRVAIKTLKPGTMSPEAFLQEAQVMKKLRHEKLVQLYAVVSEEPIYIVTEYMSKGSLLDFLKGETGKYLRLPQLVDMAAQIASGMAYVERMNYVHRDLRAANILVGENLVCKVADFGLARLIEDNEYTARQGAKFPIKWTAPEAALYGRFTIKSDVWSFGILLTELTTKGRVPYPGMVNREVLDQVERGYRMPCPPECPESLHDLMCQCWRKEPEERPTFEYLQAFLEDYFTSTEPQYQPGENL

| Structure (SMILES) | Fold Difference |
| --- | --- |
| C=CC(=O)N1CCN(c2ccc(C(N)=O)c(-c3ccc(Oc4ccccc4)cc3)n2)CC1 [Example 5, 6-(4-acryloylpiperazin-1-yl)-2-(4-phenoxyphenyl)nicotinamide] | >100x |
